Laboratory results: patent US3989836A, “Method for treating cardiovascular circulatory insufficiencies and hypotonia with 2-hydroxyphenyl-1-oxa-4-azaspiroalkane derivatives” (Warner-Lambert Company, priority 1973, dated 1976)
Where two headings read alike, the source gives them in different places.

Experiments:
Assay type in all cases: in vivo
[1] = Toxicity on mice (LD50 i.g., largest dose i.v. at which all animals survive); settings: for LD50 i.g.: mice, footnote: not determinable because of insufficient resorption, no dosage-dependent death of the animals; for LD50: mouse, in vivo, po
Protocol: I. toxicity was determined on mice in the usual manner; the test and comparison substances being administered in aqueous solution by means of a stomach probe.

[2] = system: average blood pressure; assay: Sympathomimetic action: increase of the average blood pressure by 25% over the initial value (narcotised dogs); settings: for ED (25% increase): Canis lupus familiaris, read-out: dose for increase of the average blood pressure by 25% over the initial value
Protocol: Ii. sympathomimetic action was determined by measurement of the arterial and venous blood pressure using Statham transducers. The measured values were recorded by means of a direct recording instrument. As experimental animals, adult dogs of both sexes, were used; these had been narcotised with pentobarbital. During the experiment, the animals were kept at their specific body temperature by means of rectum-controlledinfra-red lamps. The compounds tested were injected, in the form of an isotonic solution, into the side branch of the vena femoralis. In the case of intraduodenal administration, the animals were laparotomised, and a cannula was fixed into the small intestine so that the substance, in the form of an aqueous solution, could be introduced directly into the intestine. Furthermore, the pylorus was ligatured in order to prevent regurgitation of the substance into the stomach. In the case of intragastric administration, the substances were administered in the form of an aqueous solution by means of a stomach probe.

[3] = system: average blood pressure; assay: Sympathomimetic action: increase of the average blood pressure in % of initial value (awake dogs); settings: for increase of the average blood pressure: i.g. up to 20 mg/kg
Protocol: Ii. sympathomimetic action was determined by measurement of the arterial and venous blood pressure using Statham transducers. The measured values were recorded by means of a direct recording instrument. In the case of intragastric administration, the substances were administered in the form of an aqueous solution by means of a stomach probe. Quiet and compatible dogs were trained to lie, without sedation, for a few hours on an operating board. Under local anesthesia, a catheter was introduced into the arteria femoralis. A measurement of arterial blood pressure was then carried out using the catheter and a Statham transducer.

[4] = Toxicity on mice (LD50 i.g., largest dose i.v. at which all animals survive)

| Structure (SMILES) | LD50 i.g. [1] | ED (25% increase) ([2]; intraduodenal, i.d.) [mg/kg] | increase of the average blood pressure [3] | increase of the average blood pressure in % of initial value ([3]; i.v. 0.05 mg/kg) | largest dose i.v. at which all animals survive [4] [mg/kg] | LD50 [1] [mg/kg] | ED (25% increase) ([2]; po, i.g.) [mg/kg] | duration of increase of the average blood pressure by 25% over the initial value ([2]; i.g. 4.0-16.0 mg/kg) | duration of increase of the average blood pressure ([3]; i.g. 16 mg/kg) | increase of the average blood pressure in % of initial value ([3]; i.g. 16 mg/kg) [%] | increase of the average blood pressure in % of initial value ([3]; i.v. 1 mg/kg) | duration of increase of the average blood pressure by 25% over the initial value ([2]; i.g. 2.0 mg/kg) | duration of increase of the average blood pressure ([3]; i.g. 2 mg/kg) | increase of the average blood pressure in % of initial value ([3]; i.g. 2 mg/kg) [%] | duration of increase of the average blood pressure by 25% over the initial value ([2]; i.d. 2.0 mg/kg) | duration of increase of the average blood pressure ([3]; i.g. 4 mg/kg) | increase of the average blood pressure in % of initial value ([3]; i.g. 4 mg/kg) [%] |
| --- | --- | --- | --- | --- | --- | --- | --- | --- | --- | --- | --- | --- | --- | --- | --- | --- | --- |
| NCC(O)c1cccc(O)c1 (stereo not shown) [D, 1-(3'-hyroxyphenyl)-2-aminoethanol, reference compound] | not determinable | > 20 | without effect | 50-70% | 3.3 |  |  |  |  |  |  |  |  |  |  |  |  |
| CC1=CC2(CC(C)(C)C1)NCC(c1cccc(O)c1)O2 (stereo not shown) [C, 7,9,9-trimethyl-2-(3'-hydroxyphenyl)-1-oxa-4-azaspiro-[4,5]dec-6-ene] |  |  |  |  | 20.7 | ~1200 | 4 to 16 | 60 ' | 34 ' | 50 | 30-60% |  |  |  |  |  |  |
| Oc1cccc(C2CNC3(CCCCCC3)O2)c1 (stereo not shown) [B, 2-(3'-hydroxyphenyl)-1-oxa-4-azaspiro[4,6]undecane] |  |  |  | 40-70% | 3.3 | ~400 | 2 |  |  |  |  | > 60 ' | 70 ' | 35 |  |  |  |
| CCNCC(O)c1cccc(O)c1 (stereo not shown) [E, 1-(3'-hydroxyphenyl)-2-ethylaminoethanol, reference compound] | not determinable | > 20 | without effect | 25% | 7.25 |  |  |  |  |  |  |  |  |  |  |  |  |
| Oc1cccc(C2CNC3(CCCCC3)O2)c1 (stereo not shown) [A, 2-(3'-hydroxyphenyl)-1-oxa-4-azaspiro[4,5]decane] |  | 2 |  | 50-80% | 3.3 | > 400 |  |  |  |  |  |  |  |  | > 50 ' | > 60 ' | 40 |
